Results: patent US20210290788A1, “RADIOIMMUNOCONJUGATES AND DNA DAMAGE AND REPAIR INHIBITOR COMBINATION THERAPY” (Fusion Pharmaceuticals Inc., priority 2018, published 2021)

Experiments:
[1] = test system: Colo-205 (colorectal cancer) xenograft model; assay: Example 6 in vivo combination study at multiple dose levels, Colo-205 xenograft; conditions: lower effective doses: [225Ac]-FPI-1434 20 nCi, olaparib 25 mg/kg i.p. 5 days on, 2 days off from 24 hours after FPI-1434 until day 30
Experimental: An in vivo study was conducted with [^225Ac]-FPI-1434 and olaparib in a Colo-205 (colorectal cancer) xenograft model, with [^225Ac]-FPI-1434 administered at a dose of 20 nCi, 50 nCi, or 100 nCi. In combination groups (n=5), animals were dosed with olaparib (i.p.) starting at 24 hours after [^225Ac]-FPI-1434 administration according to a 5 days on, 2 days off schedule using 25 or 50 mg/kg doses until day 30 after [^225Ac]-FPI-1434 administration (“day 0”).
Relative tumor volume was evaluated at various time points after administration. […] FIG. 13A-13C show results using 20 nCi (FIG. 13A), 50 nCi (FIG. 13B), or 100 nCi (FIG. 13C) [^225Ac]-FPI-1434 with olaparib (25 mg/kg or 50 mg/kg).

[2] = test system: A549 (NSCLC) xenograft model; assay: Example 3 in vivo efficacy of olaparib as single agent, A549 xenograft
Experimental: (§1) An in vivo efficacy study was conducted with olaparib alone as a single agent. Olaparib was given as a single agent at different doses in a Colo-205 (colorectal cancer) xenograft model and in an A549 (NSCLC) xenograft model. Groups of animals (n=5) were dosed with olaparib (i.p.) 5 days on, 2 days off using 10-100 mg/kg doses.

y-H2AX foci = assay: Example 3 immunohistochemical analysis of y-H2AX foci; type: in vivo; conditions: after olaparib treatment; Colo-205 and A549 xenograft study
Experimental: as §1

[3] = test system: A549 (NSCLC) xenograft model; assay: Example 4 in vivo synergy study, olaparib dosing schedule 1, A549 xenograft; conditions: [225Ac]-FPI-1434 200 nCi, olaparib 50 mg/kg i.p. 5 days on, 2 days off for 28 days, pre-dosed 3 times prior to FPI-1434, up to 28 days
Experimental: (§2) Combination groups (n=5) were dosed with olaparib (i.p.) 5 days on, 2 days off, using a 50 mg/kg dose for 28 days. Animals were pre-dosed with olaparib 3 times prior to the [^225Ac]-FPI-1434 administration.

[4] = test system: Colo-205 (colorectal cancer) xenograft model; assay: Example 5 in vivo synergy study, olaparib dosing schedule 2, Colo-205 xenograft; conditions: FPI-1434 50 nCi, olaparib 50 mg/kg i.p. 5 days on, 2 days off for 28 days, first dose 24 hours after FPI-1434, up to 28 days
Experimental: Combination groups (n=5) were dosed with olaparib (i.p.) 5 days on, 2 days off, using a 50 mg/kg dose for 28 days. The first dose of olaparib was administered 24 hours following FPI-1434 administration.
(§3) Relative tumor volume was evaluated up to 28 days after administration.

[5] = test system: Colo-205 (colorectal cancer) xenograft model; assay: Example 4 in vivo synergy study, olaparib dosing schedule 1, Colo-205 xenograft; conditions: [225Ac]-FPI-1434 50 nCi, olaparib 50 mg/kg i.p. 5 days on, 2 days off for 28 days, pre-dosed 3 times prior to FPI-1434, up to 28 days
Experimental: as §2, §3

[6] = test system: Colo-205 (colorectal cancer) xenograft model; assay: Example 3 in vivo efficacy of olaparib as single agent, Colo-205 xenograft
Experimental: as §1

[7] = olaparib i.p. 5 days on, 2 days off, 10-100 mg/kg

`O=C(c1cc(Cc2n[nH]c(=O)c3ccccc23)ccc1F)N1CCN(C(=O)C2CC2)CC1` [olaparib] was tested, and the Relative tumor volume [1] was “no or limited therapeutic effect”, the “Dose response of tumor volume effect” value ([2]; olaparib 10-100 mg/kg doses) was “did not appear to be a dose response” and the “Relative tumor volume (efficacy as a single agent)” value [2, 7] was “modest efficacy as a single agent”. For the same compound, the “DSB formation (y-H2AX foci, immunohistochemical analysis)” value (y-H2AX foci) was “no increase in DSB formation”, the Relative tumor volume [3] was “no apparent difference in tumor volume over time” and the Relative tumor volume [4] was “significant reduction in tumor volume overtime”. For the same compound, the Relative tumor volume [5] was “some reduction in tumor volume over time”, the “Dose response of tumor volume effect” value ([6]; olaparib 10-100 mg/kg doses) was “did not appear to be a dose response” and the “Relative tumor volume (efficacy as a single agent)” value [6, 7] was “modest efficacy as a single agent”.
